Experimental findings from patent US10765706B2, “Method of stem cell delivery into the brain during chronic disease using blood brain barrier permeabilizers” (University of South Florida, priority 2015, dated 2020) are described below.

What all share (type): in vivo, Sprague-Dawley rats
The test system of experiment [1] is middle cerebral artery occlusion (MCAO) stroke rats. In words: Neurogenesis, chronic stroke, FIG. 7. The following applies: treatment 1 month after MCAO. The procedure: (§1) Adult Sprague-Dawley rats initially received sham surgery or experimental stroke via the one-hour middle cerebral artery occlusion (MCAO) model, as disclosed in Example 2. At 1 month after the MCAO surgery, stroke animals were randomly assigned to receive human umbilical cord stem cells only (2 million viable cells), mannitol only (1.1 mol/L mannitol at 4° C.), combined human umbilical cord stem cells (200,000 viable cells) and mannitol (1.1 mol/L mannitol at 4° C.), and vehicle (phosphate buffered saline, PBS) only.
(§2) The hUCBC (Saneron CCEL Therapeutics, Inc., Tampa, Fla.) were thawed at 37° C. Cells were washed and centrifuged three times (1000 rpm for 7 minutes). Viability was determined using the trypan blue dye exclusion method and cell concentration was adjusted to 10,000 cells/μl. A minimum of 85% viability post-thaw was required for a sample to be used for transplantation. For hUCBC+BBB, 200,000 hUCB cells were suspended in 10 μl PBS in a 28-gauge Hamilton syringe. For hUCBC only, 2×10^6 cells were suspended in […] PBS. The BBB only treatment was injected as prepared. Treatments were administered by intra-arterial injection into the internal carotid artery where the embolic filament was previously inserted. Infusion rate was 1 μl per minute as determined by using a micro-infusion pump.

Experiment [2] shares this test system. In words: Motor asymmetry, chronic stroke (treatment 1 month after MCAO), FIG. 1. As to conditions: intra-arterial, hUCBC only 2 million cells, combination 200,000 cells + 1.1 mol/L mannitol. The method, then:
as §1, §2

Experiment [3] has the same test system. Nature of the experiment: Histological analysis of brain cell survival, chronic stroke, FIG. 2. As to conditions: treatment 1 month after MCAO.
Method: The hUCBC (Saneron CCEL Therapeutics, Inc., Tampa, Fla.) were thawed at 37° C. Cells were washed and centrifuged three times (1000 rpm for 7 minutes). Viability was determined using the trypan blue dye exclusion method and cell concentration was adjusted to 10,000 cells/μl. A minimum of 85% viability post-thaw was required for a sample to be used for transplantation. For hUCBC+BBB, 200,000 hUCB cells were suspended in 10 μl PBS in a 28-gauge Hamilton syringe. For hUCBC only, 2×10^6 cells were suspended in XX μl PBS. The BBB only treatment was injected as prepared. Treatments were administered by intra-arterial injection into the internal carotid artery where the embolic filament was previously inserted. Infusion rate was 1 μl per minute as determined by using a micro-infusion pump.

The structures appear in SMILES notation.

As to `OC[C@@H](O)[C@@H](O)[C@H](O)[C@H](O)CO` [mannitol], the “neurogenesis, increase above sham-operated rats” value in experiment [1] is “without concomitant neurogenesis”. Besides, the motor asymmetry result in experiment [2] is listed as “lowered the motor asymmetry slightly”. In addition, the “cell survival (brain damage, peri-infarct area)” value in experiment [3] is on record as “significant brain damage”.
